Results: US11579147B2, “Use of VNN1 as a biomarker and a therapeutic target in sarcomas” (INSERM (Institut National de la Santé et de la Recherche …, priority 2017, dated 2023)
“Also recorded” adds a separate entry of the source.

Experiments:
[1] = system: myofibroblast cell lines (J2A, H1 or I1); assay: in vitro growth of Ras-transfected myofibroblast cell lines; type: cell-based, mouse; settings: data not shown
Text: Given the slow rate of tumor development and the rare emergence of STS in Vnn1+/+ mice, we developed new transplantable STS models. The different tumors derived from three independent myofibroblast cell lines (J2A, H1 or I1) were subcutaneously grafted in Nude mice. […] Since pantetheinase activity releases pantothenate and cysteamine in vivo, we tested the effect of these compounds on in vitro and in vivo growth.

[2] = system: Ras expressing tumors (R); assay: growth of tumors subcutaneously grafted in Nude mice; type: in vivo; settings: administered to grafted mice, FIG. 4
Text: The different tumors derived from three independent myofibroblast cell lines (J2A, H1 or I1) were subcutaneously grafted in Nude mice. […] Since pantetheinase activity releases pantothenate and cysteamine in vivo, we tested the effect of these compounds on in vitro and in vivo growth.

[3] = system: collagen I or caveolin I genes; assay: qRT-PCR of differentiation genes in enriched tumor cells depleted of CD45+ cells; type: in vivo, mice; settings: cysteamine-treated R tumor cells
Text: We then performed a similar analysis using RNA extracted from enriched R, cysteamine-treated R and VR tumor cells depleted of CD45+ hematopoietic cells. […] Therefore, Vnn1 expression is associated with a differentiated grade of tumors which is not recapitulated by CEA administration.

CoA levels = assay: coenzyme A levels in tumors; type: in vivo; settings: administration to mice bearing R tumors
Text: (§1) Since pantetheinase hydrolyses pantetheine into pantothenate and cysteamine, we searched for more specific actions. We first focused on pantothenate which could be detected by LC-MS analysis. […] Accordingly, we found some significant variations in the levels of various metabolites involved in the regulation of the TCA cycle.

GSH levels = GSH levels in tumor tissue extracts; type: in vivo; settings: administration to tumor-bearing mice, data not shown
Text: as §1

[4] = system: various metabolites analyzed by LC-MS; assay: LC-MS analysis of tumor metabolites; type: in vivo; settings: administration to tumor-bearing mice
Text: as §1

## NCCS [cysteamine, 2-aminoethanethiol]
[1]
  growth of cell lines in vitro: reduced the growth of all cell lines
[2]
  tumor growth in grafted mice: inhibits tumor growth; also recorded: reduced the growth
[3]
  expression of collagen I or caveolin I genes: not able to induce the expression
CoA levels
  CoA levels in tumors: only moderately enhanced
GSH levels
  GSH levels in tissue extracts: reduction in GSH levels
[4]
  impact on the various metabolites analyzed by LC-MS: could not detect a significant impact

## CC(C)(CO)[C@@H](O)C(=O)NCCC(=O)O [pantothenate, 3-[(2R)-(2,4-Dihydroxy-3,3-dimethylbutanoyl)amino]propanoic acid]
[1]
  growth of cell lines in vitro: no effect
